Laboratory results as given in ChEMBL document CHEMBL1201862, “PubChem BioAssay data set” (2004).
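Cultured in 96-well plates, cells were exposed to test compound for 48 hours across five concentrations. GI50: concentration for 50% inhibition of growth.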 The source made the active and inactive calls. Cut-off read from the data, not from the text of the source: active = GI50 up to about 1.1 µM and inactive = higher. Where a SMILES comes first, the peptide text is derived from it. The star is where a group is joined. Boc = CC(C)(C)OC(=O)*

Tests used:
Test in all cases: NCI-60 cell line screen, 48 h
KM-20L2 = tested on: KM-20L2
DMS-114 = tested on: DMS-114
DMS-273 = tested on: DMS-273
SNB-78 = tested on: SNB-78
LXFL 529 = tested on: LXFL 529
HOP-18 = tested on: HOP-18
RXF 631 = tested on: RXF 631
XF498 = tested on: XF498
DLD-1 = tested on: DLD-1

Measured: GI50

CC1(SCC(N)C(=O)O)CC(=O)NC1=O (stereo not given)
inactive: KM-20L2 > 100 µM | DMS-114 > 100 µM | DMS-273 > 100 µM | SNB-78 > 100 µM | LXFL 529 > 100 µM

COC1/C(=C\C(C)=O)c2ccccc2N1C(C)=O (stereo not given)
inactive: HOP-18 > 100 µM | RXF 631 > 100 µM | KM-20L2 > 100 µM | XF498 > 100 µM | DLD-1 > 100 µM | DMS-273 > 100 µM | LXFL 529 > 100 µM

COc1ccc2c(C(=O)O)cc3cc(OC)c(OC)cc3c2c1
inactive: HOP-18 > 100 µM | RXF 631 > 100 µM | KM-20L2 > 100 µM | XF498 > 100 µM | DLD-1 > 100 µM | DMS-273 > 100 µM | SNB-78 > 100 µM | LXFL 529 > 100 µM

C1CN(c2nnc(N3CCC3)nn2)C1
inactive: HOP-18 > 100 µM | RXF 631 > 10 µM | KM-20L2 > 44.8 µM | DMS-114 21.3 µM | XF498 22.2 µM | DLD-1 > 100 µM | DMS-273 > 43.2 µM | SNB-78 57.4 µM | LXFL 529 21.3 µM

COC(=O)Cc1cc(=O)[nH]c2c1C(=O)CCC2
inactive: HOP-18 > 100 µM | XF498 > 100 µM | DLD-1 > 100 µM | LXFL 529 > 100 µM

COc1ccc(NC(=O)CC(=O)n2nc(-c3ccccc3)c(/N=N/c3ccccc3C(=O)O)c2-c2ccccc2)cc1
inactive: RXF 631 > 100 µM | KM-20L2 > 100 µM | DMS-114 > 100 µM | DLD-1 > 100 µM | DMS-273 > 100 µM | LXFL 529 > 100 µM

COc1ccc(Br)c(CCCCC(=O)O)c1
inactive: HOP-18 > 100 µM | KM-20L2 > 100 µM | DMS-114 > 100 µM | XF498 > 100 µM | DLD-1 > 100 µM | DMS-273 > 100 µM | SNB-78 > 100 µM | LXFL 529 > 100 µM

COc1ccc(/C(Cl)=C(\C=O)c2cc(OC)c(OC)c(OC)c2)cc1OC
inactive: HOP-18 12.2 µM | RXF 631 19.7 µM | KM-20L2 22.8 µM | DMS-114 12.1 µM | DMS-273 35.8 µM | SNB-78 16.8 µM | LXFL 529 11.2 µM

NC1=NC(=O)C(CC(=O)Nc2ccc([N+](=O)[O-])cc2[N+](=O)[O-])S1 (stereo not given)
inactive: HOP-18 52 µM | RXF 631 > 100 µM | KM-20L2 > 100 µM | DMS-114 > 100 µM | XF498 > 100 µM | DLD-1 > 100 µM | SNB-78 > 100 µM | LXFL 529 > 100 µM

O=[N+]([O-])c1cc2c(cc1O)[nH]c1cccc([N+](=O)[O-])c12
inactive: HOP-18 33.9 µM | DMS-114 > 100 µM | XF498 > 100 µM | DLD-1 > 100 µM | DMS-273 > 100 µM | SNB-78 > 100 µM

O=C(CC1(O)C(=O)Nc2ccccc21)c1ccco1 (stereo not given)
inactive: KM-20L2 > 100 µM | DMS-114 > 100 µM | XF498 > 100 µM | DLD-1 > 100 µM | DMS-273 > 100 µM | SNB-78 > 100 µM | LXFL 529 > 100 µM

CCOC(=O)C/C(=N\c1cc(C)on1)N(CC)CC.[O-][Cl+3]([O-])([O-])O
inactive: KM-20L2 > 100 µM | DMS-114 > 100 µM | XF498 > 100 µM | DLD-1 > 100 µM | DMS-273 > 100 µM | SNB-78 > 100 µM | LXFL 529 > 100 µM

S=c1sc2c(n1-c1ccccc1)N=CNC2S (stereo not given)
inactive: HOP-18 28.8 µM | KM-20L2 > 100 µM | DMS-114 31.1 µM | XF498 > 100 µM | DLD-1 > 100 µM | DMS-273 > 100 µM | SNB-78 87.5 µM | LXFL 529 > 100 µM

Nc1nc(SCc2ccccc2Cl)c2ncn(C3OC(CO)C(O)C3O)c2n1 (stereo not given)
inactive: HOP-18 > 100 µM | KM-20L2 > 100 µM | DMS-114 43.5 µM | DLD-1 > 100 µM | DMS-273 65.6 µM | LXFL 529 50.9 µM

CC(C)(C)OC(=O)NC(Cc1ccc(O)cc1)C(=O)N1CCCC1C(=O)O (stereo not drawn) (Boc-Tyr-Pro-OH; configuration not given here)
inactive: HOP-18 > 100 µM | RXF 631 > 100 µM | KM-20L2 > 100 µM | DMS-114 > 100 µM | XF498 > 100 µM | DLD-1 > 100 µM | DMS-273 > 100 µM | SNB-78 > 100 µM | LXFL 529 > 100 µM

COc1ccc(Cc2c(=O)[nH]nc3ccccc23)cc1
inactive: HOP-18 > 100 µM | RXF 631 > 100 µM | KM-20L2 > 100 µM | DMS-114 > 100 µM | XF498 33 µM | DLD-1 > 100 µM | DMS-273 > 100 µM | SNB-78 > 100 µM

N#Cc1c(NN)nc(NN)c(C#N)c1-c1ccccc1
inactive: HOP-18 > 100 µM | RXF 631 > 100 µM | KM-20L2 > 100 µM | DMS-114 > 100 µM | XF498 > 100 µM | DLD-1 > 100 µM | DMS-273 > 100 µM | SNB-78 > 100 µM | LXFL 529 > 100 µM

O=[N+]([O-])c1ccc(/C=C/c2ccc(/C=C/c3ccc([N+](=O)[O-])cc3[N+](=O)[O-])cc2)c([N+](=O)[O-])c1
inactive: KM-20L2 > 100 µM | DMS-114 > 100 µM | XF498 > 100 µM | DLD-1 > 100 µM | DMS-273 > 100 µM | SNB-78 > 100 µM | LXFL 529 > 100 µM

CCn1c(O)c(C(=O)Nc2cccs2)c(=O)n(CC)c1=S
inactive: RXF 631 19 µM | KM-20L2 17.7 µM | DMS-114 15.4 µM | DLD-1 33.3 µM | SNB-78 17.8 µM | LXFL 529 14.9 µM

O=S(=O)(O)CS(=O)(=O)OCCCl
inactive: HOP-18 81.8 µM | RXF 631 > 100 µM | KM-20L2 > 100 µM | DMS-114 > 100 µM | XF498 > 100 µM | DLD-1 > 100 µM | DMS-273 > 100 µM | SNB-78 > 100 µM | LXFL 529 > 100 µM

Cc1ccccc1SC(/C=C/NNC1=NN=C(c2ccccc2)C(c2ccccc2)N1)c1ccccc1 (stereo not given)
inactive: KM-20L2 52 µM | DMS-114 22.9 µM | XF498 34.7 µM | DLD-1 37.5 µM | DMS-273 35.7 µM | SNB-78 22 µM

Cc1ccc(C(=O)O/N=C2/CCCCC2CN(C)C)cc1 (stereo not given)
inactive: HOP-18 > 100 µM | RXF 631 > 100 µM | KM-20L2 > 100 µM | DMS-114 > 100 µM | DLD-1 > 100 µM | DMS-273 > 100 µM | SNB-78 > 100 µM | LXFL 529 > 100 µM

COc1ccc2c(c1)[n+]([O-])c(C(N)=O)c(N)[n+]2[O-]
inactive: HOP-18 > 100 µM | RXF 631 34 µM | KM-20L2 37.2 µM | DMS-114 35.6 µM | DLD-1 > 100 µM | DMS-273 71.9 µM | SNB-78 > 100 µM | LXFL 529 66.4 µM

CSc1cnc2ccccc2c1Sc1c[nH]c2ccccc2c1=O
inactive: HOP-18 14.9 µM | KM-20L2 4.42 µM | DMS-114 5.7 µM | DLD-1 11.7 µM | DMS-273 8.38 µM | SNB-78 57.3 µM | LXFL 529 8.67 µM

c1ccc2cc(-c3cc4ccccc4s3)ccc2c1
inactive: HOP-18 > 100 µM | KM-20L2 > 100 µM | DMS-114 > 100 µM | XF498 > 100 µM | DLD-1 > 100 µM | DMS-273 > 100 µM | SNB-78 > 100 µM
